For assay [1], the system named is Raw 264.7 macrophages. The assay can be described thus: Soluble delivery of DGEA to 2D cultures of M1-stimulated macrophages, iNOS/DAPI immunostaining. Format: cell-based, mouse. To be noted: 2D culture, M1 media (100 ng/mL LPS, 10 ng/mL IFNγ), 5 mM soluble DGEA, 72 hrs; without DGEA 0.5±0.1; p<0.05. How it is done:
To establish interactions between DGEA and M1 macrophages, a 2D study was conducted with soluble delivery of DGEA to the media culture. […] 5 mM DGEA was dissolved in the media to assess the effects of DGEA on macrophage activation (S. Y. Yoo, M. Kobayashi, P. P. Lee, and S. W. Lee, “Early osteogenic differentiation of mouse preosteoblasts induced by collagen-derived DGEA-peptide on nanofibrous phage tissue matrices,” Biomacromolecules, vol. 12, no. 4, pp. 987-996, April 2011). After stimulation, the cells were stained for 4′,6-diamidino-2-phenylindole (DAPI) and iNOS (inset (b) of FIG. 1). The addition of 5 mM DGEA in the media reduced the number of iNOS^+ cells, as represented in insets (b) and (c) in FIG. 1. The iNOS^+ cell count was normalized to the number of DAPI^+ cells for each image chosen to be analyzed. […] Polarized iNOS^+ macrophage cells with soluble DGEA were dramatically lower than iNOS^+ macrophage cells without any presence of DGEA. […] ECM-derived peptides have been investigated in cell function. For example, the interaction between collagen and α2β1 integrin is important for the osteoblastic differentiation of bone marrow cells. […]
(§1) Cells were stimulated with M1 media 24 hrs post-seeding and post-encapsulation. In all studies, the effects of DGEA on the cells were assessed 72 hrs post-stimulation with M1 media by immunocytochemistry (ICC). […]

In assay [2] the test system is Raw 264.7 macrophages. The experiment in a line: Soluble delivery of DGEA to macrophages encapsulated in 3D control PEG hydrogels, iNOS/DAPI immunostaining. Format: cell-based, mouse. Conditions: 3D control hydrogel (3.5 mM PEG-RGDS, 5% PEG-PQ-PEG), 5 mM soluble DGEA in M1 media, 72 hrs; non-significant (p>0.05). How it is done:
Raw 264.7 macrophages were encapsulated within the hydrogel. These quiescent M0 macrophages were allowed to equilibrate in the incubator for 24 hrs, after which M1 media was added to stimulate them towards the pro-inflammatory phenotype. At this time, 5 mM DGEA was also dissolved into the media and the samples were incubated for another 72 hrs. The samples were then fixed, stained, imaged, and analyzed. The immunofluorescent images represent DAPI stained cells and iNOS stained cells (inset (b) in FIG. 2). The 3D hydrogels were imaged using a Keyence BZ-X800 microscope and the images represent 2D slices of an entire 3D Z-stack. […] The data were statistically non-significant (p>0.05). […]
as §1
Images were quantified based on the number of iNOS^+ cells, normalized to DAPI^+ cells for each condition. Images were analyzed using the “automated cell counting of single color image” feature on ImageJ (NIH) software after a randomized, unbiased selection of images. All images were turned to 8-bit grayscale and threshold to highlight all the cells to be counted. […]

The test system of assay [3] is TNFα, IL-6, iNOS gene expression. The experiment in a line: RT-PCR of pro-inflammatory gene expression (TNFα, IL-6, iNOS). Format: cell-based. To be noted: FIG. 7. The source says: The results validate the inflammation inhibiting properties of DGEA by looking at pro-inflammatory gene expressions. The genes assessed include TNFα (a); IL-6 (b); and iNOS (c).
For assay [4], the system named is Raw 264.7 macrophages. The experiment in a line: iNOS and CD206 expression in M0, M1 and M2 raw 264.7 macrophages encapsulated in control and PEG-DGEA hydrogels. Format: cell-based, mouse.
The target in the next assay is T1, α2β1 integrin (Homo sapiens, UniProt P05556+P17301).
T1 construct: Integrin α2β1 appears to play a pivotal role in macrophage polarization by affecting downstream signaling pathways
Conditions: DGEA-coated plates, Cha et al.; cited from earlier work.

A further assay relates to bone marrow cells. To be noted: bone marrow cells encapsulated in type I collagen matrix gels, Mizuno et al.; cited from earlier work.
The test system of another assay is platelets. To be noted: Luzak et al.; cited from earlier work.
In another assay the test system is ovarian carcinoma cells. To be noted: Fishman et al.; cited from earlier work.

T1 sequence (P17301 30-1181): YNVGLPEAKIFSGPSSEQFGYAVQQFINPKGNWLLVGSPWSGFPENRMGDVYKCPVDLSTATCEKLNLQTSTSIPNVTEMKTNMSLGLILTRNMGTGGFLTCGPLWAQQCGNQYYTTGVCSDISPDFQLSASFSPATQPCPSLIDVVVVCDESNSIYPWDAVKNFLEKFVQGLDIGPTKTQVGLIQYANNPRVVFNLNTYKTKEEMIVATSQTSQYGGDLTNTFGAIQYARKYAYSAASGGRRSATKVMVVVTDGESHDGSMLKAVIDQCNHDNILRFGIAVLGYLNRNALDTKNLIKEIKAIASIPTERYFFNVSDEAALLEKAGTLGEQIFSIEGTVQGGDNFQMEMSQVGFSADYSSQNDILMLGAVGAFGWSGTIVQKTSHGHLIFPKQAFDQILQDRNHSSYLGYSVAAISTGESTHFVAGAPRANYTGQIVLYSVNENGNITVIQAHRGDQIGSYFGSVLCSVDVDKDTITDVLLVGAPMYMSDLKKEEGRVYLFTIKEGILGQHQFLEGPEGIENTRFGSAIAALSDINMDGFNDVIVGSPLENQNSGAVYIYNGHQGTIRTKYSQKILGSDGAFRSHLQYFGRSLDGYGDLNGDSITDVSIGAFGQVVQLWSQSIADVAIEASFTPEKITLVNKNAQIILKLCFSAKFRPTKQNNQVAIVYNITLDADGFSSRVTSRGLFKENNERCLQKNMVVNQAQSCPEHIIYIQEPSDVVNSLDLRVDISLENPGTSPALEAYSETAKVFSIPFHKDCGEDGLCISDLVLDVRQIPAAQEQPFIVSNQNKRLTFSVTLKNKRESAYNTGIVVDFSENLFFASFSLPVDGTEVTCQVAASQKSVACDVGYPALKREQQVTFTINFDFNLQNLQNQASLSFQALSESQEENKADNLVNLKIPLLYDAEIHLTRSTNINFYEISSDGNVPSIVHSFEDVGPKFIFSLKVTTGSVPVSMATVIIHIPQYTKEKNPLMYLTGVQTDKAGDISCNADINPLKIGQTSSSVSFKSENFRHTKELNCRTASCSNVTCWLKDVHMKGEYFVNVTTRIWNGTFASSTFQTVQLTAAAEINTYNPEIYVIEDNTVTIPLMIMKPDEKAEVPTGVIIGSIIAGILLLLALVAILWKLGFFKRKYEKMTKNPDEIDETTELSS
T1 sequence (P05556 21-798): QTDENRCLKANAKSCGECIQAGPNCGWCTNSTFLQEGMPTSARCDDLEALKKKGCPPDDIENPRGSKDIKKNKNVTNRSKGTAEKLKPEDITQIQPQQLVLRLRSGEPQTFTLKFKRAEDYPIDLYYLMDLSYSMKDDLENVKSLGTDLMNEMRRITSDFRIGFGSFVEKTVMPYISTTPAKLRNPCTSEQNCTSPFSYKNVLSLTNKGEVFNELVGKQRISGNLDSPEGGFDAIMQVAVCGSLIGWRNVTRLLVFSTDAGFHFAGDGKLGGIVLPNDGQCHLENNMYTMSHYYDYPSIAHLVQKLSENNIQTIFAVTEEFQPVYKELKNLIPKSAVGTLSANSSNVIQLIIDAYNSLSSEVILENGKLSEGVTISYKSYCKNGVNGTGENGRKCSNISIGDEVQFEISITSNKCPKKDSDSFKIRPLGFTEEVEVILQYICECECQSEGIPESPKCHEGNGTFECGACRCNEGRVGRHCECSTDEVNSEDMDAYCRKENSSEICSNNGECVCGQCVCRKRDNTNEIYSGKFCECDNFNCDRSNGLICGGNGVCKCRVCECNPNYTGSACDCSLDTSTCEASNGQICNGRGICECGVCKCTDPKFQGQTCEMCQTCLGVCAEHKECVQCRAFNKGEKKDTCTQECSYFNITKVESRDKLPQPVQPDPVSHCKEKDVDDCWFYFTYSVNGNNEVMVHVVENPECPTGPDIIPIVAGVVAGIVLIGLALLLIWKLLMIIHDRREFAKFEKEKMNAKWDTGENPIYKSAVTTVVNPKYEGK

As for “Asp-Gly-Glu-Ala (DGEA; DGEA peptide sequence)”, in the assay with Raw 264.7 macrophages [1], the “iNOS+ M1 activated macrophages as fraction of the total DAPI+ cells” value was found to be 0.1±0.1. Further, the “number of iNOS+ cells (normalized to DAPI+ cells)” value with Raw 264.7 macrophages [2] was “lower than the number of iNOS^+ cells without any DGEA”. Moreover, in assay [3], the “expression of pro-inflammatory mediators (TNFα, IL-6, iNOS) by RT-PCR” value is “significantly reduces expression”. For the same substance, in the assay on Raw 264.7 macrophages [4] (M0, M1 and M2 macrophages encapsulated in PEG-DGEA vs control hydrogels, FIG. 8), the iNOS expression result is listed as “reduced iNOS expression”. Also, the CD206 expression result in the assay on Raw 264.7 macrophages [4] (M1 or M2 macrophage phenotypes in PEG-DGEA hydrogels, FIG. 9) is “did not appear to have any significant effects”. In addition, the “expression of CD206 (M2 marker)” value with α2β1 integrin was “higher expression of CD206”. Besides, the “expression of osteoblastic phenotype” value with bone marrow cells is recorded as “inhibited the expression of osteoblastic phenotype”. Further, the platelet adhesion entry with platelets was “significant inhibition in platelet adhesion”. Moreover, the “adhesion of ovarian carcinoma cells to collagen” value in the assay on ovarian carcinoma cells was “block adhesion”.

These data come from patent US20240335500A1, “CONTROLLING PRO-INFLAMMATORY MACROPHAGE PHENOTYPE THROUGH BIOFUNCTIONAL HYDROGEL DESIGN” (UNIVERSITY OF FLORIDA RESEARCH FOUNDATION, INCORPORATED, priority 2021, published 2024).
